The text below walks through data of paper PMC10389763, “BlaPSZ-1, a novel AmpC gene identified from a Pantoea isolate” (Frontiers in Microbiology, 2023).

Broadly, the IC50 is the concentration needed to halve the response being measured. A high value points to a need for much substance.

In the assay the target is T1, PSZ-1 (AmpC β-lactamase).
T1 construct: gene blaPSZ-1; recombinant PSZ-1 from pCold I in E. coli BL21, His-tag removed with thrombin
The experiment in a line: inhibition of nitrocefin hydrolysis, […] min preincubation, […]°C. Format: biochemical, Pantoea endophytica.

`NC(=O)[C@@H]1CC[C@@H]2CN1C(=O)N2OS(=O)(=O)O` [avibactam] had an IC50 of 0.0555 µM.

On to `C[C@]1(Cn2ccnn2)[C@H](C(=O)O)N2C(=O)C[C@H]2S1(=O)=O` [tazobactam], for which the IC50 turned out to be 7.96 µM. Compared with the last compound, the IC50 is about 140-fold higher.
